Data: article PMC6273687, “Design, Synthesis and Biological Evaluation of Novel Primaquine-Cinnamic Acid Conjugates of the Amide and Acylsemicarbazide Type” (Molecules, 2016)

Columns and labels:
[1] = test system: SW 620 colon carcinoma cell line; assay: Growth inhibition of tumor cell lines in vitro (MTT / cell counting); assay type: cell-based; settings: Homo sapiens, 72 h; SW 620, 3 days
Method: (§1) The experiments were carried out on a murine lymphocytic leukemia cell line (L1210) and five human tumor cell lines: CEM, HeLa, NCI-H460, SW 620 and MCF-7. The cells were cultured as monolayers and maintained in Dulbecco′s modified Eagle medium (DMEM) supplemented with 10% fetal bovine serum (FBS), 2 mM L-glutamine, 100 U/mL penicillin and 100 μg/mL streptomycin in a humidified atmosphere with 5% CO2 at 37 °C.
(§2) The growth inhibition activity of the compounds was assessed as described previously. The cell lines were inoculated onto a series of standard 96-well microtiter plates on day 0, at 1.5 × 10^4 cells/mL (SW 620, H460) to 2.5 × 10^4 cells/mL (MCF-7, CEM and L1210), depending on the growth of the tumor cell line. Test agents were then added in ten-fold dilutions (10^−8 to 10^−4 M) and the cell cultures were then incubated for 3–4 days with 5% CO2 at 37 °C. Working dilutions of the compounds were freshly prepared on the day of testing.
(§3) After 3 (MCF-7, SW 620, NCI-H460) or 4 days (CEM, L1210), the cell growth rate was evaluated first light microscopically, then by viable cell counting and/or by performing the MTT assay, which detects dehydrogenase activity in live, not dead, cells. The absorbance (A) was measured on a microplate reader at 570 nm. The absorbance is directly proportional to the number of living, metabolically active cells. […] If however, all of the tested concentrations produce PGs exceeding the respective reference level of effect (e.g., PG value of 50), then the highest tested concentration is assigned as the default value, which is preceded by a “>” sign. Minimum two individual experiments were carried out and each test point was performed in quadruplicate.

[2] = test system: HeLa cervical carcinoma cell line; assay: as above; assay type: cell-based; settings: Homo sapiens
Method: as §1, §2, §3

[3] = test system: CEM acute lymphoblastic leukemia cell line; assay: as above; assay type: cell-based; settings: Homo sapiens, 96 h, 4 days
Method: as §1, §2, §3

[4] = test system: L1210 murine lymphocytic leukemia cell line; assay: as above; assay type: cell-based; settings: Mus musculus, 96 h; L1210, 4 days
Method: as §1, §2, §3

human coronavirus (229E) = assay: microbe, parasite or virus in culture; assay type: cell-based; settings: read-out: EC50 (concentration required to reduce virus-induced cytopathogenicity by 50%), HEL cell cultures
[5] = Interaction with the stable radical DPPH (reducing ability)
Method: To a solution of DPPH in absolute ethanol the appropriate volume of the compounds (50 or 100 µM final concentrations) dissolved in DMSO was added. The absorbance was recorded at 517 nm after 20 and 60 min at room temperature. The experiments were repeated at least in triplicate and the standard deviation of absorbance was less than 10% of the mean. NDGA was used under the same experimental conditions as a reference compound.

[6] = Inhibition of linoleic acid peroxidation (AAPH-induced); settings: 5 × 10^−5 M
Method: For initiating the lipid peroxidation free radical AAPH was used. Final solution in the UV cuvette consisted of 10 μL linoleate sodium solution (c = 16 mM), 0.93 mL phosphate buffer (c = 0.05 M), pH 7.4, thermostated at 37 °C. 50 μL AAPH solution (c = 40 mM) and 10 μL of the tested compounds were added. The experiment was performed at 37 °C under air. The oxidation of linoleic acid sodium salt was monitored at 234 nm. The assays were repeated at least in triplicate and the standard deviation of absorbance was less than 10% of the mean. Trolox was used under the same experimental conditions as a reference compound.

[7] = target: T1, soybean lipoxygenase (LOX) (Glycine max, UniProt P08170); assay: LOX inhibition study in vitro; assay type: biochemical; settings: for IC50: values in parentheses in Table 3; for inhibition at 100 µM: 1 × 10^−4 M
T1 construct: purchased Sigma-Aldrich
T1 sequence (P08170 1-839): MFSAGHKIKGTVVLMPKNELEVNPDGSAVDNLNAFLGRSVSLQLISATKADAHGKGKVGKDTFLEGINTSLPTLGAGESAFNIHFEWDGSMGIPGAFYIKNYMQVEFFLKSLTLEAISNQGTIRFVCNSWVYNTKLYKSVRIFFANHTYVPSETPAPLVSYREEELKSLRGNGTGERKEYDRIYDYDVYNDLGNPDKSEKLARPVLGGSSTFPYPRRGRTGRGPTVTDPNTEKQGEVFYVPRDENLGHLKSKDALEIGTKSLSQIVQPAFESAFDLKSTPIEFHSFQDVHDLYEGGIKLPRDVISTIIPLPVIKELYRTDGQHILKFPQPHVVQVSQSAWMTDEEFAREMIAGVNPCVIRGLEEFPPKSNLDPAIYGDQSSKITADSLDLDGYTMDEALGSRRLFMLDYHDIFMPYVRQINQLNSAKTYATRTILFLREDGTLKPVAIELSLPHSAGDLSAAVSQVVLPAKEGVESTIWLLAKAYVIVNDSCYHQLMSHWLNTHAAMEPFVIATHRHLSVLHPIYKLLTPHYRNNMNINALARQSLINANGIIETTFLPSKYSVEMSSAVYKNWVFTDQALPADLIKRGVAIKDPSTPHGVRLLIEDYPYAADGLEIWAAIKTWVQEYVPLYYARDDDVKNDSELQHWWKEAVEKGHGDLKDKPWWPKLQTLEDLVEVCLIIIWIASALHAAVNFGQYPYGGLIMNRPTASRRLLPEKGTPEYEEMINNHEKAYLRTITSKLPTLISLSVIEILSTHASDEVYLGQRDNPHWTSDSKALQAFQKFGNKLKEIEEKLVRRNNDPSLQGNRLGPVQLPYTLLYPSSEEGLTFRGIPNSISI
Method: LOX inhibitory assay in vitro was accomplished as described previously. The test compounds (stock solutions 10 mM in DMSO) were incubated at room temperature with sodium linoleate (c = 0.1 mM) and 0.2 mL of LOX enzyme solution (1/9 × 10^−4 m/V in saline). The conversion of sodium linoleate to 13-hydroperoxylinoleic acid was measured at 234 nm and compared with the reference inhibitor. Several concentrations were used for the IC50 determination.

[8] = test system: MCF-7 breast carcinoma cell line; assay: Growth inhibition of tumor cell lines in vitro (MTT / cell counting); assay type: cell-based, human; settings: Homo sapiens, MCF7, 72 h; MCF-7, 3 days
Method: as §1, §2, §3

[9] = test system: NCI-H460 lung carcinoma cell line; assay: as above; assay type: cell-based, human; settings: Homo sapiens, 72 h; NCI-H460, 3 days
Method: as §1, §2, §3

Row | Compound | IC50 [1] [µM] | IC50 [2] [µM] | IC50 [3] [µM] | IC50 [4] [µM] | EC50 (human coronavirus (229E)) [µM] | DPPH-reducing ability RA (%) ([5]; 1 × 10^−4 M, 20 min) | DPPH-reducing ability RA (%) ([5]; 1 × 10^−4 M, 60 min) | DPPH-reducing ability RA (%) ([5]; 5 × 10^−5 M, 20 min) | DPPH-reducing ability RA (%) ([5]; 5 × 10^−5 M, 60 min) | LP Inhibition (%) [6] [%] | IC50 [7] [µM] | IC50 [8] [µM] | IC50 [9] [µM] | inhibition at 100 µM [7] [%]
1 | COc1cc(NC(C)CCCNC(=O)NNC(=O)/C=C/c2cc(C(F)(F)F)cc(C(F)(F)F)c2)c2ncccc2c1 (stereo not shown) [7k, (E)-1-(3-(3,5-Bis(trifluoromethyl)phenyl)acryloyl)-4-(4-(6-methoxyquinolin-8-ylamino)pentyl)semicarbazide] | 32 ± 4 | 30 ± 23 | 17 ± 5 | 30 ± 17 | 8.4 | 98 | 97 | 72 | 100 | 55 | 67.5 | 3.2 ± 0.8 | 48 ± 2 | 
2 | COc1cc(NC(C)CCCNC(=O)NNC(=O)/C=C/c2cc(OC)c(OC)c(OC)c2)c2ncccc2c1 (stereo not shown) [7e, (E)-4-(4-(6-Methoxyquinolin-8-ylamino)pentyl)-1-(3-(3,4,5-trimethoxyphenyl)acryloyl)semicarbazide] | 48 ± 17 | 70 ± 2 | 54 ± 12 | 57 ± 5 |  | 46 | 100 | 60 | 100 | 86 | 43 | 1.4 ± 0.1 | 63 ± 2 | 
3 | COc1cc(NC(C)CCCNC(=O)/C=C/c2ccc(Cl)cc2)c2ncccc2c1 (stereo not shown) [3g, (E)-3-(4-Chlorophenyl)-N-(4-(6-methoxyquinolin-8-ylamino)pentyl)acrylamide] | > 100 | 36 ± 16 | 20 ± 2 | 63 ± 2 |  | 27 | 46 |  |  | 46 |  | 4.3 ± 1 | > 100 | 17
4 | COc1cc(NC(C)CCCNC(=O)NNC(=O)/C=C/c2ccccc2)c2ncccc2c1 (stereo not shown) [7a, (E)-1-Cinnamoyl-4-(4-(6-methoxyquinolin-8-ylamino)pentyl)semicarbazide] | > 100 | 12 ± 2 | 3 ± 0.5 | 7 ± 3.1 |  | 39 | 100 | 49 | 100 | 83 |  | 2.5 ± 1.9 | > 100 | 36
5 | COc1cc(NC(C)CCCNC(=O)/C=C/c2ccc(C(F)(F)F)cc2)c2ncccc2c1 (stereo not shown) [3j, (E)-N-(4-(6-Methoxyquinolin-8-ylamino)pentyl)-3-(4-(trifluoromethyl)phenyl)acrylamide] | > 100 | 25 ± 6 | 14 ± 1 | 50 ± 18 |  | 38 | 40 |  |  | 77 | 50 | 3.9 ± 0.6 | > 100 | 
6 | COc1cc(NC(C)CCCNC(=O)/C=C/c2ccc(OC)c(OC)c2)c2ncccc2c1 (stereo not shown) [3d, (E)-3-(3,4-Dimethoxyphenyl)-N-(4-(6-methoxyquinolin-8-ylamino)pentyl)acrylamide] | > 100 | > 125 | 90 ± 45 | 100 ± 34 |  | 34 | 31 |  |  | 73 |  | 16 ± 0.6 | > 100 | 43
7 | COc1cc(NC(C)CCCNC(=O)/C=C/c2cc(OC)c(OC)c(OC)c2)c2ncccc2c1 (stereo not shown) [3e, (E)-N-(4-(6-Methoxyquinolin-8-ylamino)pentyl)-3-(3,4,5-trimethoxyphenyl)acrylamide] | > 100 | > 125 | 55 ± 16 | 22 ± 2 |  | 16 | 23 | 4 | 9 | 47 |  | 8.7 ± 0.3 | > 100 | 26
8 | COc1cc(NC(C)CCCNC(=O)NNC(=O)/C=C/c2ccccc2F)c2ncccc2c1 (stereo not shown) [7h, (E)-1-(3-(2-Fluorophenyl)acryloyl)-4-(4-(6-methoxyquinolin-8-ylamino)pentyl)semicarbazide] | 12 ± 4 | 46 ± 2 | 15 ± 2 | 40 ± 4 |  | 52 | 100 | 61 | 100 | 67 | 41 | 5.9 ± 2 | 12 ± 0.2 | 
